Results reported in patent US20260116920A1, “HUMAN TRANSFERRIN RECEPTOR BINDING PEPTIDE” (PEPTIDREAM INC., priority 2021, published 2026).
Positions of bridges follow the written chain, without caps; N, C: chain ends. Non-standard residues stand in square brackets, D forms with d. Residues, ends and D or L forms follow the SMILES beside them. *: point of attachment. Nle(6-morpholino) = N[C@@H](CCCCN1CCOCC1)C(=O)O; Phe(3-COOH) = N[C@@H](Cc1cccc(C(=O)O)c1)C(=O)O; Trp(7-aza) = N[C@@H](Cc1c[nH]c2ncccc12)C(=O)O; NMePhe(3-Cl) = CN[C@@H](Cc1cccc(Cl)c1)C(=O)O; NMeY = CN[C@@H](Cc1ccc(O)cc1)C(=O)O; PEG4 = NCCOCCOCCOCCOCCC(=O)O; Carboxymethyl = O=C(O)C*

The compounds below were run against T1, human transferrin receptor (hTfR) (Homo sapiens, UniProt P02786) (assay: Evaluation of molecular interaction between transferrin receptor (hTfR) and peptide using surface plasmon resonance (SPR)). Conditions: surface plasmon resonance, binding to hTfR; KD class symbol; read-out: SPR (KD value).
T1 construct: made in house
Type: binding
Outline: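 SPR, single-cycle kinetics; hTfR dimer on NTA chip via Ni capture plus EDC/NHS coupling. Analyte peptide 100, 50, 25, 10, 5 nM. Running buffer: 10 mM HEPES pH 8.0, 150 mM NaCl, 0.05% Tween 20, 0.1% BSA, 1.0% DMSO. KD by least-squares fit.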

T1 sequence (P02786 89-760 limits assumed): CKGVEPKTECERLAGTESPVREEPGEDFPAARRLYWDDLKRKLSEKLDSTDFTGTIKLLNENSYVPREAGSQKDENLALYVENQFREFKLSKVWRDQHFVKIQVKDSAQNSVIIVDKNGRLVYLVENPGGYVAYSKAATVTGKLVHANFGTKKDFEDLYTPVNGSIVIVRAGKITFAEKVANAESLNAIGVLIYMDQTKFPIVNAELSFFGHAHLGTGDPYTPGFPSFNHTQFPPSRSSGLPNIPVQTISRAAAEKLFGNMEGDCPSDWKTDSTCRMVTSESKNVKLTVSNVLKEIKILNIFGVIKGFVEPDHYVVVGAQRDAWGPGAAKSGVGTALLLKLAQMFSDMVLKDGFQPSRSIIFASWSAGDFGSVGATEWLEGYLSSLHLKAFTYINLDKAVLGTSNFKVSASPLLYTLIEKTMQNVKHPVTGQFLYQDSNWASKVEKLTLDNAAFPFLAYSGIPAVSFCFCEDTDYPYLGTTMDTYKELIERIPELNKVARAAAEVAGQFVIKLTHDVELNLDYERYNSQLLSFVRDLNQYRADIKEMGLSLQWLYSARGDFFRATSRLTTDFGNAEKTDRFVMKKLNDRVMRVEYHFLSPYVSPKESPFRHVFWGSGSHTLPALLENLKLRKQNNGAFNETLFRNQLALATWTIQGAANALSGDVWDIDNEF

Kd, 1 to 100 nM:
CC[C@H](C)[C@@H]1NC(=O)[C@H](Cc2ccc(OCC(=O)O)cc2)NC(=O)[C@H](Cc2ccc(O)cc2)NC(=O)[C@H](CC(N)=O)NC(=O)[C@H](Cc2c[nH]c3ncccc23)NC(=O)[C@H](C(C)C)NC(=O)[C@H](Cc2cccc(Cl)c2)N(C)C(=O)[C@H](C(C)C)NC(=O)[C@H](C)NC(=O)CSC[C@@H](C(=O)NCCOCCOCCOCCOCCC(N)=O)NC(=O)[C@H](Cc2ccc(O)cc2)N(C)C(=O)[C@H](Cc2cccc(C(=O)NCCOCCOCCOCCOC)c2)NC(=O)[C@H](CCCNC(=N)N)NC(=O)[C@H](CCC(=O)NCCOCCOCCOCCOC)NC(=O)[C@H]([C@@H](C)CC)NC1=O [compound 130], CC[C@H](C)[C@@H]1NC(=O)[C@H](Cc2ccc(OCC(=O)O)cc2)NC(=O)[C@H](Cc2ccc(O)cc2)NC(=O)[C@H](CC(N)=O)NC(=O)[C@H](Cc2c[nH]c3ncccc23)NC(=O)[C@H](C(C)C)NC(=O)[C@H](Cc2cccc(Cl)c2)N(C)C(=O)[C@H](C(C)C)NC(=O)[C@H](C)NC(=O)CSC[C@@H](C(=O)NCCOCCOCCOCCOCCC(N)=O)NC(=O)[C@H](Cc2ccc(C(=O)NCCOCCOCCOCCOC)cc2)N(C)C(=O)[C@H](Cc2cccc(C(=O)NCCOCCOCCOCCOC)c2)NC(=O)[C@H](CCCNC(=N)N)NC(=O)[C@H](CCC(N)=O)NC(=O)[C@H]([C@@H](C)CC)NC1=O [compound 131], CC[C@H](C)[C@@H]1NC(=O)[C@H](Cc2ccc(OCC(=O)O)cc2)NC(=O)[C@H](Cc2ccc(O)cc2)NC(=O)[C@H](CC(N)=O)NC(=O)[C@H](Cc2c[nH]c3ncccc23)NC(=O)[C@H](C(C)C)NC(=O)[C@H](Cc2cccc(Cl)c2)N(C)C(=O)[C@H](C(C)C)NC(=O)[C@H](C)NC(=O)CSC[C@@H](C(=O)NCCOCCOCCOCCOCCC(N)=O)NC(=O)[C@H](Cc2cccc(C(=O)NCCOCCOCCOCCOC)c2)N(C)C(=O)[C@H](Cc2cccc(C(=O)NCCOCCOCCOCCOC)c2)NC(=O)[C@H](CCCNC(=N)N)NC(=O)[C@H](CCC(N)=O)NC(=O)[C@H]([C@@H](C)CC)NC1=O [compound 132], CC[C@H](C)[C@@H]1NC(=O)[C@H](Cc2ccc(OCC(=O)O)cc2)NC(=O)[C@H](Cc2ccc(O)cc2)NC(=O)[C@H](CC(N)=O)NC(=O)[C@H](Cc2c[nH]c3ncccc23)NC(=O)[C@H](C(C)C)NC(=O)[C@H](Cc2cccc(Cl)c2)N(C)C(=O)[C@H](C(C)C)NC(=O)[C@H](C)NC(=O)CSC[C@@H](C(=O)NCCOCCOCCOCCOCCC(N)=O)NC(=O)[C@H](Cc2ccc(O)cc2)N(C)C(=O)[C@H](Cc2ccccc2)NC(=O)[C@H](CCCNC(=N)N)NC(=O)[C@H](CCC(=O)NCCOCCOCCOCCOC)NC(=O)[C@H]([C@@H](C)CC)NC1=O [compound 133], CC[C@H](C)[C@@H]1NC(=O)[C@H](Cc2ccc(OCC(=O)O)cc2)NC(=O)[C@H](Cc2ccc(O)cc2)NC(=O)[C@H](CC(N)=O)NC(=O)[C@H](Cc2cn(CC(=O)O)c3ccccc23)NC(=O)[C@H](C(C)C)NC(=O)[C@H](Cc2cccc(Cl)c2)N(C)C(=O)[C@H](C(C)C)NC(=O)[C@H](C)NC(=O)CSC[C@@H](C(=O)NCCOCCOCCOCCOCCC(N)=O)NC(=O)[C@H](Cc2ccc(O)cc2)N(C)C(=O)[C@H](Cc2ccncc2)NC(=O)[C@H](CCCNC(=N)N)NC(=O)[C@H](CCC(N)=O)NC(=O)[C@H]([C@@H](C)CC)NC1=O [compound 134], CC[C@H](C)[C@@H]1NC(=O)[C@H](Cc2ccc(OCC(=O)O)cc2)NC(=O)[C@H](Cc2ccc(O)cc2)NC(=O)[C@H](CC(N)=O)NC(=O)[C@H](Cc2cn(CC(=O)O)c3ccccc23)NC(=O)[C@H](C(C)C)NC(=O)[C@H](Cc2cccc(Cl)c2)N(C)C(=O)[C@H](C(C)C)NC(=O)[C@H](C)NC(=O)CSC[C@@H](C(=O)NCCOCCOCCOCCOCCC(N)=O)NC(=O)[C@H](Cc2ccc(O)cc2)N(C)C(=O)[C@H](Cc2ccncc2)NC(=O)[C@H](CCCCN2CCOCC2)NC(=O)[C@H](CCC(N)=O)NC(=O)[C@H]([C@@H](C)CC)NC1=O [compound 135], CC[C@H](C)[C@@H]1NC(=O)[C@H](Cc2ccc(OCC(=O)O)cc2)NC(=O)[C@H](Cc2ccc(O)cc2)NC(=O)[C@H](CC(N)=O)NC(=O)[C@H](Cc2cn(CC(=O)O)c3ccccc23)NC(=O)[C@H](C(C)C)NC(=O)[C@H](Cc2cccc(Cl)c2)N(C)C(=O)[C@H](C(C)C)NC(=O)[C@H](C)NC(=O)CSC[C@@H](C(=O)NCCOCCOCCOCCOCCC(N)=O)NC(=O)[C@H](Cc2ccc(O)cc2)N(C)C(=O)[C@H](Cc2cccc(C(=O)O)c2)NC(=O)[C@H](CCCNC(=N)N)NC(=O)[C@H](CCC(N)=O)NC(=O)[C@H]([C@@H](C)CC)NC1=O [compound 136], CC[C@H](C)[C@@H]1NC(=O)[C@H](Cc2ccc(OCC(=O)O)cc2)NC(=O)[C@H](Cc2ccc(O)cc2)NC(=O)[C@H](CC(N)=O)NC(=O)[C@H](Cc2c[nH]c3ncccc23)NC(=O)[C@H](C(C)C)NC(=O)[C@H](Cc2cccc(Cl)c2)N(C)C(=O)[C@H](C(C)C)NC(=O)[C@H](C)NC(=O)CSC[C@@H](C(=O)NCCOCCOCCOCCOCCC(N)=O)NC(=O)[C@H](Cc2ccc(O)cc2)N(C)C(=O)[C@H](Cc2ccncc2)NC(=O)[C@H](CCCNC(=N)N)NC(=O)[C@H](CCC(N)=O)NC(=O)[C@H]([C@@H](C)CC)NC1=O [compound 137], CC[C@H](C)[C@@H]1NC(=O)[C@H](Cc2ccc(OCC(=O)O)cc2)NC(=O)[C@H](Cc2ccc(O)cc2)NC(=O)[C@H](CC(N)=O)NC(=O)[C@H](Cc2c[nH]c3ncccc23)NC(=O)[C@H](C(C)C)NC(=O)[C@H](Cc2cccc(Cl)c2)N(C)C(=O)[C@H](C(C)C)NC(=O)[C@H](C)NC(=O)CSC[C@@H](C(=O)NCCOCCOCCOCCOCCC(N)=O)NC(=O)[C@H](Cc2ccc(O)cc2)N(C)C(=O)[C@H](Cc2ccncc2)NC(=O)[C@H](CCCCN2CCOCC2)NC(=O)[C@H](CCC(N)=O)NC(=O)[C@H]([C@@H](C)CC)NC1=O [compound 138], CC[C@H](C)[C@@H]1NC(=O)[C@H](Cc2ccc(OCC(=O)O)cc2)NC(=O)[C@H](Cc2ccc(O)cc2)NC(=O)[C@H](CC(N)=O)NC(=O)[C@H](Cc2c[nH]c3ncccc23)NC(=O)[C@H](C(C)C)NC(=O)[C@H](Cc2cccc(Cl)c2)N(C)C(=O)[C@H](C(C)C)NC(=O)[C@H](C)NC(=O)CSC[C@@H](C(=O)NCCOCCOCCOCCOCCC(N)=O)NC(=O)[C@H](Cc2ccc(O)cc2)N(C)C(=O)[C@H](Cc2ccncc2)NC(=O)[C@H](CCCCN2CCOCC2)NC(=O)[C@H](CCC(=O)NCCOCCOCCOCCOCCOCCOCCOCCOC)NC(=O)[C@H]([C@@H](C)CC)NC1=O [compound 139], CC[C@H](C)[C@@H]1NC(=O)[C@H](Cc2ccc(OCC(=O)O)cc2)NC(=O)[C@H](Cc2ccc(O)cc2)NC(=O)[C@H](CC(N)=O)NC(=O)[C@H](Cc2c[nH]c3ncccc23)NC(=O)[C@H](C(C)C)NC(=O)[C@H](Cc2cccc(Cl)c2)N(C)C(=O)[C@H](C(C)C)NC(=O)[C@H](C)NC(=O)CSC[C@@H](C(=O)NCCOCCOCCOCCOCCC(N)=O)NC(=O)[C@H](Cc2ccc(O)cc2)N(C)C(=O)[C@H](Cc2cccc(C(=O)O)c2)NC(=O)[C@H](CCCCN2CCOCC2)NC(=O)[C@H](CCC(N)=O)NC(=O)[C@H]([C@@H](C)CC)NC1=O [compound 140] ({CH2CO}-AV[NMePhe(3-Cl)]V[Trp(7-aza)]NYY(Carboxymethyl)IIQ[Nle(6-morpholino)][Phe(3-COOH)][NMeY]C[PEG4]-NH2; thioether N-15)
